Measured values from patent publication US20240117303A1, “METHODS AND COMPOSITIONS FOR GENERATING HUMAN MIDBRAIN DOPAMINERGIC NEURONS FROM NEURAL PROGENITOR CELLS” (Trailhead Biosystems Inc., priority 2022, published 2024).
Several values for one entry are separate records, joined by “and”; a condition that tells them apart may be missing. Equal values may be shown once. Entries after “also recorded” stand apart in the source; their conditions may differ.

Experiments:
stage 3 immature neurons = test: HD-DoE 8-factor experiment for stage 4 recipe (FIG. 27, 28, 31); type: cell-based, human; conditions: for impact on expression of NR4A2: 8-factor model / dynamic profile; for expression level of PITX3 in absence of the factor / expression level of NR4A2 in absence of the factor: stage 4 recipe, other factors present; for expression level of PITX3 in absence of the factor: 40 with all factors; for expression level of NR4A2 in absence of the factor: 400 with all factors
Method: To further differentiate the cells to a mature neuronal identity, additional HD-DoE experiments were performed on the cells that were cultured in stage 1, stage 2 and stage 3 differentiation media. After 4 days, gene expression of cells in different combinatorial conditions were investigated. At this time, we focused on maximal expression of more mature dopaminergic genes such as NR4A2, PITX3 and TH (Tiklová et al. (2020) Nat Commun. 11:2434; Fiorenzano et al. (2021) Nat Commun., 12:7302). In one model, cells were treated with a combinatorial matrix with eight inputs including CHIR99021, BDNF, GDNF, Rosiglitazone, GW7647, DBZ and heparin.
(§1) To assess the impact of elimination of each validated factor identified in Example 5 for the stage 3 and stage 4 recipes, we used dynamic profile analysis and compared the expression level of genes of interest in absence of each finalized factor while others are present.
In the stage 4 recipe, each of six finalized factors were excluded while other factors were present and the expression levels of NR4A2 and PITX3 were assessed compared to the presence of all factors.

[1] = test system: stage 1 neural stem cells; test: HD-DoE 12-factor experiment for stage 2 recipe (second model, FIG. 8-10, 13); type: cell-based, human; conditions: for impact on expression of FOXA2 / impact on expression of LMX1A / impact on GBX2: dynamic profile, 12 effectors; for level of FOXA2 in absence of the factor / level of LMX1A in absence of the factor: stage 2 recipe, second experiment model; for level of LMX1A in absence of the factor: 4000 with all factors
Method: To test additional factors like FGF8 that is routinely used in midbrain differentiation protocols, we ran another 12-factor experiment consisting of LDN193189, BMP7, A 83-01, Activin A, Takinib, PD0325901, MK2206, FGF8b, AZD3147, MHY1485, GSI-XX and Yhhu 3792. Similar to the previous experiment, hiPSCs were treated with stage 1 media for 3 days and then treated with 96 conditions of combinations of the factors for an additional 3 days. When this model was optimized for maximum expression of FOXA2, BMP7 with factor contribution of 13.7 and MK2206 with 14.2 had the most impact on its expression followed by AZD 3147 with factor contribution of 10.9.
(§2) To assess the impact of elimination of each validated factor, we used dynamic profile analysis and compared the expression level of genes of interest in absence of each finalized factor while others are present.
(§3) In the stage 2 recipe, each of the six finalized factors were removed while the other five factors were present and the expression levels of FOXA2, LMX1A and GBX2 were assessed, compared to the levels in the presence of all factors. According to the first experiment model, the absence of TTNPB lead to a rise of GBX2 expression, while the value of FOXA2 and LMX1A reduced drastically from 10,000 to 0 and 30,000 to 15,000, respectively. The absence of A 83-01 reduced the expression of FOXA2 from 10,000 to 7000, however, as expected, the value of LMX1A increased from 30,000 to 40,000. […] According to the second experiment model, the absence of BMP7 and MK2206 both reduced the level of FOXA2 while increasing the value of LMX1A, with BMP7 as the main effector that led to 0 expression of FOXA2.

[2] = test system: human pluripotent stem cells; test: HD-DoE 13-factor experiment for stage 1 recipe, gene expression modeled after 3-day treatment; dynamic profile and factor criticality analysis; type: cell-based
From the text: This example utilizes a method of High-Dimensional Design of Experiments (HD-DoE), as previously described in Bukys et al. (2020) Iscience 23:101346. The method employs computerized design geometries to simultaneously test multiple process inputs and offers mathematical modeling of a deep effector/response space. The method allows for finding combinatorial signaling inputs that control a complex process, such as during cell differentiation. It allows testing of multiple plausible critical process parameters, as such parameters impact output responses, such as gene expression. Because gene expression provides hallmark features of the phenotype of, for example, a human cell, the method can be applied to identify, and understand, which signaling pathways control cell fate. In the current example, the HD-DOE method was applied with the intent to find conditions for induction of midbrain neural progenitor-expressed genes, directly from the pluripotent stem cell state.
To develop the recipe for each stage, the impact of agonists and antagonists of multiple signaling pathways (referred to herein as “effectors”) on the expression of two sets of 53 pre-selected genes after a 3-day treatment was tested and modeled. These effectors are small molecules or proteins that are commonly used during stepwise differentiation of stem cells to specific fates. The choice of the effectors to test was based on current literature on neural induction in the midbrain region of the developing brain and differentiation of stem cells to neural progenitors.
To test the effectors, experiments with at least 8 factors were designed that can assess the response of cells to 48 or more different combinations of effectors in a range of concentrations. To analyze the models, we focused on expression of genes expressed in the midbrain region, including OTX2, DMBX1, FOXA2, LMX1A, and on the absence of GBX2, which is a hindbrain marker. The impact of each effector on gene expression level is defined by a parameter called factor contribution that is calculated for each effector during the modeling.
To identify the recipe of stage 1 of differentiation, cells were treated with various effectors for 3 days and the gene expression of cells was modeled. […] This model consisted of 13 factors including LDN193189, PD173074, BLU9931, Purmorphamine, SC79, MK2206, ZM336372, PD0325901, CHIR99021, XAV939, UCLA-gp130, Tofacitinib and GO 6983.
as §2
In the stage 1 recipe, each of the five finalized factors were removed while the other four factors were present and the expression levels of OTX2, DMBX1, FOXA2 and LMX1A was assessed compared to the levels in the presence of all five factors (FIG. 11A-B). […] Expression level of DMBX1 increased in absence of LDN193189, however values of OTX2, FOXA2 and LMX1A decreased.

[3] = test system: stage 1 neural stem cells; test: HD-DoE 12-factor experiment for stage 2 recipe (first model, FIG. 5-7, 12); type: cell-based, human; conditions: dynamic profile / model, 12 effectors
From the text: To further guide the differentiation of midbrain-committed neural stem cells to neural progenitor cells at stage 2, we performed an additional HD-DoE experiment. We thereby obtained additional gene regulatory models that were used for preparation of differentiation protocol. The basis of this was a 12-factor HD-DoE experiment with focus on initiation of differentiation of cells toward midbrain neural progenitor cells for an additional 3 days after termination of stage 1 treatment. Here, we focused on expression of LMX1A and FOXA2 in neural progenitor cells with low to zero expression of GBX2. LMX1A had significant high expression level in the model with value of 47888. Therefore, we used optimization setting for this gene to identify the positive factors. The factors in this experiment included SC79, MK2206, ZM336372, PD0325901, CHIR99021, A 83-01, TTNPB, AGN193109, GW3965, SR9243, Purmorphamine and GSI-XX.
as §2, §3

[4] = test system: stage 2 neural progenitors; test: HD-DoE 12-factor model for stage 3 recipe (FIG. 19-23, 29); type: cell-based, human
From the text: To develop the neuronal differentiation recipes, the impact of various agonist and antagonists (effectors) on maturation of MB neural progenitors was investigated using the HD-DoE method described in Example 1. These effectors were chosen based on available literature on developmental biology, differentiation of stem cells as well as mouse and human single cell RNA-seq data from midbrain neurons at the time.
To engineer the recipe of stage 3 of differentiation, cells were first cultured in the stage 1 and stage 2 media as described herein, then they were treated with combinations of 8 or 12 factors for 3 days and the gene expression of cells in each condition was modeled. To guide the cells towards a subtype of midbrain dopaminergic neurons that reside in Substantia Nigra pars compacta (SNc) region of the brain, neural progenitors need to be SOX6^+ (Pereira et al. (2021) Cell Rep. 37:109975 Oosterveen et al. (2021) Stem Cell Reports 16:2718-2735 Poulin et al. (2020) Trends Neurosci. 43:155-169). CORIN, NGN2 and MSX1 are other markers involved in neurogenesis of dopaminergic neurons originating from floorplate region of developing midbrain (Wang et al. (2020) Cells 9:1489; Samata et al. (2016) Nat Commun. 7:13097; Ono et al. (2007) Development 134:3213-3225; Prakash et al. (2006) J. Physiol. 575:403410).
Therefore, we focused on maximizing expression of SOX6, CORIN, NGN2 and MSX1 in modeling experiments. One of the 12-factor models, the results of which are shown in FIG. 19, including LDN193189, AGN193109, BMP7, TTNPB, PD0325901, A8301, MHY1485, CHIR99021, XAV939, SANT-1, Purmorphamine and MK2206, provided a combination set that could maximize expression level of CORIN to more than 2000.
as §1
In the stage 3 recipe, each of the finalized factors were removed in their respective models while other factors were present and the expression level of genes of interest was assessed compared to presence of all factors. When AGN193109 was excluded, level of all CORIN, KCNJ6, MSX1 and SOX6 decreased from 900 to 450, 50 to 35, 140 to 110 and 105 to 60, respectively. […] When PD0325901 was removed, expression levels of CORIN and KCNJ6 increased to 1200 and 70 while levels of MSX1 and SOX6 decreased to 105 and 20. In the absence of CHIR99021, the expression level of CORIN was again increased to 1200 while the level of KCNJ6 and MSX1 dropped to 50 and 115. […] Therefore, it was decided to include this compound in the final recipe. […] Therefore, CHIR99021 was also included in the final recipe.

[5] = model optimized for maximum expression of FOXA2, positive impact

NCCc1ccc(O)c(O)c1 [Dopamine]
impact on expression of NR4A2 (stage 3 immature neurons): positive regulatory impact
expression level of PITX3 in absence of the factor (stage 3 immature neurons): 20
expression level of NR4A2 in absence of the factor (stage 3 immature neurons): ~0

C[C@H](NC(=O)Cc1cc(F)cc(F)c1)C(=O)N[C@@H]1C(=O)N(C)c2ccccc2-c2ccccc21 [GSI-XX]
impact on expression of FOXA2 [1]: did not make a meaningful positive change
impact on expression of LMX1A [1]: did not make a meaningful positive change

CC(C)(Sc1ccc(CCN(CCCCC2CCCCC2)C(=O)NC2CCCCC2)cc1)C(=O)O [GW7647]
impact on expression of NR4A2 (stage 3 immature neurons): positive regulatory impact
expression level of PITX3 in absence of the factor (stage 3 immature neurons): lower expression levels
expression level of NR4A2 in absence of the factor (stage 3 immature neurons): lower expression levels

NC1(c2ccc(-c3nc4ccn5c(=O)[nH]nc5c4cc3-c3ccccc3)cc2)CCC1 [MK2206]
impact on GBX2 [1]: desirable impact
impact on expression of FOXA2 [1]: desirable impact; also recorded: positive impact
impact on expression of LMX1A [1]: decreases
factor contribution [1, 5]: 14.2
factor contribution ([1]; model optimized for maximum expression of LMX1A, positive impact): 12
level of FOXA2 in absence of the factor [1]: reduced
level of LMX1A in absence of the factor [1]: increasing
impact on expression of OTX2 ([2]; dynamic profile, 13 effectors): positive impact
factor contribution ([2]; model optimized for maximum expression of OTX2, positive impact, 3-day treatment): 22.3
expression level of LMX1A in absence of the factor ([2]; stage 1 recipe, other four factors present, 300 with all five factors): stayed the same
expression level of FOXA2 in absence of the factor ([2]; stage 1 recipe, other four factors present, 600 with all five factors): stayed the same
expression level of DMBX1 in absence of the factor ([2]; stage 1 recipe, other four factors present, 3000 with all five factors): 1500
expression level of OTX2 in absence of the factor ([2]; stage 1 recipe, other four factors present, 12000 with all five factors): 9500
impact on expression of FOXA2 [3]: positive impact

CN(CCOc1ccc(CC2SC(=O)NC2=O)cc1)c1ccccn1 (centres unmarked) [Rosiglitazone]
factor contribution (stage 3 immature neurons; model maximized for NR4A2, negative impact): 13.6

COc1cccc(Oc2cccc3nc(Nc4ccc(C(C)C)cc4)nc(N)c23)c1 [Yhhu 3792]
impact on GBX2 [1]: positive effect
impact on expression of LMX1A [1]: considerable negative effect
factor contribution ([1]; model optimized for LMX1A, negative impact): 11.7

B1: BMP7: BMP agonist (protein, UniProt P18075 293-431, looked up)
Bone morphogenetic protein 7: STGSKQRSQNRSKTPKNQEALRMANVAENSSSDQRQACKKHELYVSFRDLGWQDWIIAPEGYAAYYCEGECAFPLNSYMNATNHAIVQTLVHFINPETVPKPCCAPTQLNAISVLYFDDSSNVILKKYRNMVVRACGCH
impact on expression of FOXA2 [1]: significant positive impact
impact on expression of LMX1A [1]: did not reduce
factor contribution [1, 5]: 13.7
level of FOXA2 in absence of the factor [1]: 0
level of LMX1A in absence of the factor [1]: increasing
factor contribution ([4]; model maximizing expression of CORIN, positive regulatory impact): high positive factor contributions
factor contribution ([4]; model optimized for maximum expression of KCNJ6, positive regulators): low factor contributions
factor contribution ([4]; model optimized for maximum expression of MSX1, positive impact): 11.1 and 11.06
expression level of KCNJ6 in absence of the factor ([4]; stage 3 recipe, other factors present, 50 with all factors): did not have a significant change
expression level of SOX6 in absence of the factor ([4]; stage 3 recipe, other factors present, 105 with all factors): did not have a significant change
expression level of MSX1 in absence of the factor ([4]; stage 3 recipe, other factors present, 140 with all factors): 100
expression level of CORIN in absence of the factor ([4]; stage 3 recipe, other factors present, 900 with all factors): 500
